According to patent US20090018134A1, “Compounds - 945” (AstraZeneca AB, priority 2007, published 2009):

Biological target: T1, mTOR (Homo sapiens, UniProt P42345)
T1 construct: FLAG; made in house
Test: In Vitro mTOR Kinase Assay (Echo), Test (a)(ii)
Format: biochemical
Conditions: table of enzyme assay Test (a)(ii); read-out: Test (a)(ii) IC50
Method in brief: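 Inhibition of truncated mTOR (1362-2549, FLAG-tagged, purified from stably transfected HEK293 cells) is measured as reduced AlphaScreen signal from a phospho-T389-recognising antibody bound to the biotinylated peptide product. Kinase incubation lasts 2 hours at room temperature. Potency is given as IC50.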

T1 sequence (P42345 1362-2549): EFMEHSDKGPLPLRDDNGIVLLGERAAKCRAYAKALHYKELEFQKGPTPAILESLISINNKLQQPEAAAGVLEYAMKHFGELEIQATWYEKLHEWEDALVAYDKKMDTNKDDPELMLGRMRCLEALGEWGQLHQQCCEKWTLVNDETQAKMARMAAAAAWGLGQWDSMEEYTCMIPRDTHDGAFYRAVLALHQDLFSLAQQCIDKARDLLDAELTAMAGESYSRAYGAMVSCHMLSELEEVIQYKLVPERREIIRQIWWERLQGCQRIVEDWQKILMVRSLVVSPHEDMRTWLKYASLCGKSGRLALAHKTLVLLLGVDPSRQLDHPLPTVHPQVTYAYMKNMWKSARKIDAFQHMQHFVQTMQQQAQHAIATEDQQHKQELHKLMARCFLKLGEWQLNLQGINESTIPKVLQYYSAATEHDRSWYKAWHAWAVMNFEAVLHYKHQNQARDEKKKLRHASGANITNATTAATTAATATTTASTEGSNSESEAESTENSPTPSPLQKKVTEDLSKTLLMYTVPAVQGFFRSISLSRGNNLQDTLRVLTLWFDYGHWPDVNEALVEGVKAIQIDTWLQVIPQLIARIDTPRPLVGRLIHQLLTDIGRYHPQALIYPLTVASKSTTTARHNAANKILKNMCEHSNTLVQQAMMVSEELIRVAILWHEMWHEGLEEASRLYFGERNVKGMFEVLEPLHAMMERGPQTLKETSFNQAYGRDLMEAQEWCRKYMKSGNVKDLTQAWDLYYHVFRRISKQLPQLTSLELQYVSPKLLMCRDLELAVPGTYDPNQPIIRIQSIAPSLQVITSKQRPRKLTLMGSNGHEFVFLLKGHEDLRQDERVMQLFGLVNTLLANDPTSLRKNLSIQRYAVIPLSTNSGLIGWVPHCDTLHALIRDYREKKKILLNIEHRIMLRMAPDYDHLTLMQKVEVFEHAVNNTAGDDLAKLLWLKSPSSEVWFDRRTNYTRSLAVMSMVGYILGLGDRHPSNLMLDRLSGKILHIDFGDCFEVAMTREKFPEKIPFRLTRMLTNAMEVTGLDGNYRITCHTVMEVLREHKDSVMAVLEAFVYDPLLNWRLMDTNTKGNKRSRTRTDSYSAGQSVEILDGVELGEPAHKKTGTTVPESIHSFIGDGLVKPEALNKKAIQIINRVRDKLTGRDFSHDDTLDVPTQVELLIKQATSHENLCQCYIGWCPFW

Row | SMILES | IC50 [nM]
1 | C[C@H]1COCCN1c1cc(C2(S(=O)(=O)C3CC3)CC2)nc(-c2ccc(NC(=O)NCCF)cc2)n1 [Example 64t, 1-[4-[4-(1-cyclopropylsulfonylcyclopropyl)-6-[(3S)-3-methylmorpholin-4-yl]pyrimidin-2-yl]phenyl]-3-(2-fluoroethyl)urea] | 11.4
2 | C[C@H]1COCCN1c1cc(C2(S(=O)(=O)C3CC3)CC2)nc(-c2ccc(NC(=O)NCC(F)F)cc2)n1 [Example 64u, 1-[4-[4-(1-cyclopropylsulfonylcyclopropyl)-6-[(3S)-3-methylmorpholin-4-yl]pyrimidin-2-yl]phenyl]-3-(2,2-difluoroethyl)urea] | 13.9
3 | C[C@H]1COCCN1c1cc(C2(S(=O)(=O)C3CC3)CC2)nc(-c2ccc(NC(=O)NCc3ncc[nH]3)cc2)n1 [Example 64v, 1-[4-[4-(1-cyclopropylsulfonylcyclopropyl)-6-[(3S)-3-methylmorpholin-4-yl]pyrimidin-2-yl]phenyl]-3-(1H-imidazol-2-ylmethyl)urea] | 146
4 | C[C@H]1COCCN1c1cc(C2(S(=O)(=O)C3CC3)CCC2)nc(-c2ccc(NC(=O)NCCCO)cc2)n1 [Example 64z, 1-[4-[4-(1-cyclopropylsulfonylcyclobutyl)-6-[(3S)-3-methylmorpholin-4-yl]pyrimidin-2-yl]phenyl]-3-(3-hydroxypropyl)urea] | 8.66
5 | C[C@H]1COCCN1c1cc(C2(S(=O)(=O)c3nccs3)CC2)nc(-c2ccc(NC(=O)NCCO)cc2)n1 [Example 66, 3-(2-Hydroxyethyl)-1-[4-[4-[(3S)-3-methylmorpholin-4-yl]-6-[1-(1,3-thiazol-2-ylsulfonyl)cyclopropyl]pyrimidin-2-yl]phenyl]urea] | 3.03
6 | C[C@H]1COCCN1c1cc(C2(S(=O)(=O)c3nccs3)CC2)nc(-c2ccc(NC(=O)NCCCO)cc2)n1 [Example 66a, 3-(3-hydroxypropyl)-1-[4-[4-[(3S)-3-methylmorpholin-4-yl]-6-[1-(1,3-thiazol-2-ylsulfonyl)cyclopropyl]pyrimidin-2-yl]phenyl]urea] | 4.15
7 | C[C@H]1COCCN1c1cc(C2(S(=O)(=O)c3nccs3)CC2)nc(-c2ccc(NC(=O)NCc3ncc[nH]3)cc2)n1 [Example 66b, 3-(1H-imidazol-2-ylmethyl)-1-[4-[4-[(3S)-3-methylmorpholin-4-yl]-6-[1-(1,3-thiazol-2-ylsulfonyl)cyclopropyl]pyrimidin-2-yl]phenyl]urea] | 24.6
8 | C[C@H]1COCCN1c1cc(C2(S(=O)(=O)c3nccs3)CC2)nc(-c2ccc(NC(=S)NCCO)cc2)n1 [Example 67, 3-(2-Hydroxyethyl)-1-[4-[4-[(3S)-3-methylmorpholin-4-yl]-6-[1-(1,3-thiazol-2-ylsulfonyl)cyclopropyl]pyrimidin-2-yl]phenyl]thiourea] | 1
9 | CCNC(=O)Nc1ccc(-c2nc(N3CCOC[C@@H]3CC)cc(C3(S(=O)(=O)c4ccccc4)CC3)n2)cc1 [Example 70, 1-[4-[4-[1-(Benzenesulfonyl)cyclopropyl]-6-[(3S)-3-ethylmorpholin-4-yl]pyrimidin-2-yl]phenyl]-3-ethylurea] | 2
10 | CCNC(=O)Nc1ccc(-c2nc(N3CCOCC3CO)cc(C3(S(=O)(=O)c4ccccc4)CC3)n2)cc1 (centres unmarked) [Example 71, 1-[4-[4-[1-(Benzenesulfonyl)cyclopropyl]-6-[3-(hydroxymethyl)morpholin-4-yl]pyrimidin-2-yl]phenyl]-3-ethylurea] | 18.2
11 | CCNC(=O)Nc1ccc(-c2nc(N3[C@@H](C)COC[C@@H]3C)cc(C3(S(=O)(=O)c4ccccc4)CC3)n2)cc1 [Example 72, 1-[4-[4-[1-(Benzenesulfonyl)cyclopropyl]-6-[(3S,5S)-3,5-dimethylmorpholin-4-yl]pyrimidin-2-yl]phenyl]-3-ethylurea] | 4.32
12 | CCNC(=O)Nc1ccc(-c2nc(N3[C@H](C)COC[C@@H]3C)cc(C3(S(=O)(=O)c4ccccc4)CC3)n2)cc1 [Example 73, 1-[4-[4-[1-(Benzenesulfonyl)cyclopropyl]-6-[(3R,5S)-3,5-dimethylmorpholin-4-yl]pyrimidin-2-yl]phenyl]-3-ethylurea] | 7.44
13 | CC[C@H]1COCCN1c1cc(C2(S(=O)(=O)c3ccccc3)CC2)nc(-c2ccc(NC(=O)NC)cc2)n1 [Example 74, 1-[4-[4-[1-(Benzenesulfonyl)cyclopropyl]-6-[(3S)-3-ethylmorpholin-4-yl]pyrimidin-2-yl]phenyl]-3-methylurea] | 2.37
14 | CC[C@H]1COCCN1c1cc(C2(S(=O)(=O)c3ccccc3)CC2)nc(-c2ccc(NC(=O)NCCO)cc2)n1 [Example 74b, 1-[4-[4-[1-(benzenesulfonyl)cyclopropyl]-6-[(3S)-3-ethylmorpholin-4-yl]pyrimidin-2-yl]phenyl]-3-(2-hydroxyethyl)urea] | 2.44
15 | CC[C@H]1COCCN1c1cc(C2(S(=O)(=O)c3ccccc3)CC2)nc(-c2ccc(NC(=O)NCCF)cc2)n1 [Example 74c, 1-[4-[4-[1-(benzenesulfonyl)cyclopropyl]-6-[(3S)-3-ethylmorpholin-4-yl]pyrimidin-2-yl]phenyl]-3-(2-fluoroethyl)urea] | 3.14
16 | CC[C@H]1COCCN1c1cc(C2(S(=O)(=O)c3ccccc3)CC2)nc(-c2ccc(NC(=O)NCC(F)F)cc2)n1 [Example 74d, 1-[4-[4-[1-(benzenesulfonyl)cyclopropyl]-6-[(3S)-3-ethylmorpholin-4-yl]pyrimidin-2-yl]phenyl]-3-(2,2-difluoroethyl)urea] | 2.79

The remaining lines, values ahead:

Row | IC50 [nM] | SMILES
17 | 16.1 | C[C@H]1COCCN1c1cc(C2(S(=O)(=O)C3CC3)CCC2)nc(-c2ccc(NC(=O)NC(C)(C)CO)cc2)n1 [Example 64w, 1-[4-[4-(1-cyclopropylsulfonylcyclobutyl)-6-[(3S)-3-methylmorpholin-4-yl]pyrimidin-2-yl]phenyl]-3-(1-hydroxy-2-methylpropan-2-yl)urea]
18 | 7.61 | C[C@@H](CO)NC(=O)Nc1ccc(-c2nc(N3CCOC[C@@H]3C)cc(C3(S(=O)(=O)C4CC4)CCC3)n2)cc1 [Example 64x, 1-[4-[4-(1-cyclopropylsulfonylcyclobutyl)-6-[(3S)-3-methylmorpholin-4-yl]pyrimidin-2-yl]phenyl]-3-[(2S)-1-hydroxypropan-2-yl]urea]
19 | 12.5 | C[C@H](CO)NC(=O)Nc1ccc(-c2nc(N3CCOC[C@@H]3C)cc(C3(S(=O)(=O)C4CC4)CCC3)n2)cc1 [Example 64y, 1-[4-[4-(1-cyclopropylsulfonylcyclobutyl)-6-[(3S)-3-methylmorpholin-4-yl]pyrimidin-2-yl]phenyl]-3-[(2R)-1-hydroxypropan-2-yl]urea]
20 | 30 | C[C@H]1COCCN1c1cc(C2(S(=O)(=O)c3ccc(F)cc3)CCC2)nc(-c2ccc(NC(=O)NCc3ncc[nH]3)cc2)n1 [Example 65, 1-[4-[4-[1-(4-Fluorophenyl)sulfonylcyclobutyl]-6-[(3S)-3-methylmorpholin-4-yl]pyrimidin-2-yl]phenyl]-3-(1H-imidazol-2-ylmethyl)urea]
21 | 6.88 | C[C@H]1COCCN1c1cc(C2(S(=O)(=O)c3ccc(F)cc3)CCC2)nc(-c2ccc(NC(=O)NCCCO)cc2)n1 [Example 65a, 1-[4-[4-[1-(4-fluorophenyl)sulfonylcyclobutyl]-6-[(3S)-3-methylmorpholin-4-yl]pyrimidin-2-yl]phenyl]-3-(3-hydroxypropyl)urea]
22 | 3.42 | C[C@H]1COCCN1c1cc(C2(S(=O)(=O)c3ccc(F)cc3)CCC2)nc(-c2ccc(NC(=O)NCCO)cc2)n1 [Example 65b, 1-[4-[4-[1-(4-fluorophenyl)sulfonylcyclobutyl]-6-[(3S)-3-methylmorpholin-4-yl]pyrimidin-2-yl]phenyl]-3-(2-hydroxyethyl)urea]
23 | 15.1 | C[C@H]1COCCN1c1cc(C2(S(=O)(=O)c3ccc(F)cc3)CCC2)nc(-c2ccc(NC(=O)NC(C)(C)CO)cc2)n1 [Example 65c, 1-[4-[4-[1-(4-fluorophenyl)sulfonylcyclobutyl]-6-[(3S)-3-methylmorpholin-4-yl]pyrimidin-2-yl]phenyl]-3-(1-hydroxy-2-methylpropan-2-yl)urea]
24 | 4.48 | C[C@@H](CO)NC(=O)Nc1ccc(-c2nc(N3CCOC[C@@H]3C)cc(C3(S(=O)(=O)c4ccc(F)cc4)CCC3)n2)cc1 [Example 65d, 1-[4-[4-[1-(4-fluorophenyl)sulfonylcyclobutyl]-6-[(3S)-3-methylmorpholin-4-yl]pyrimidin-2-yl]phenyl]-3-[(2S)-1-hydroxypropan-2-yl]urea]
25 | 11.4 | C[C@H](CO)NC(=O)Nc1ccc(-c2nc(N3CCOC[C@@H]3C)cc(C3(S(=O)(=O)c4ccc(F)cc4)CCC3)n2)cc1 [Example 65e, 1-[4-[4-[1-(4-fluorophenyl)sulfonylcyclobutyl]-6-[(3S)-3-methylmorpholin-4-yl]pyrimidin-2-yl]phenyl]-3-[(2R)-1-hydroxypropan-2-yl]urea]
26 | 1.41 | Cc1ccc(S(=O)(=O)C2(c3cc(N4CCOC[C@@H]4C)nc(-c4ccc(NC(=O)NC5CC5)cc4)n3)CCC2)cc1 [Example 68, 3-Cyclopropyl-1-[4-[4-[(3S)-3-methylmorpholin-4-yl]-6-[1-(4-methylphenyl)sulfonylcyclobutyl]pyrimidin-2-yl]phenyl]urea]
27 | 1.74 | Cc1ccc(S(=O)(=O)C2(c3cc(N4CCOC[C@@H]4C)nc(-c4ccc(NC(=O)Nc5cnn(C)c5)cc4)n3)CCC2)cc1 [Example 68a]
28 | 7.88 | CCNC(=O)Nc1ccc(-c2nc(N3CCOC[C@H]3C)cc(C3(S(=O)(=O)c4ccccc4)CC3)n2)cc1 [Example 69, 1-[4-[4-[1-(Benzenesulfonyl)cyclopropyl]-6-[(3R)-3-methylmorpholin-4-yl]pyrimidin-2-yl]phenyl]-3-ethylurea]
29 | 3.98 | CC[C@H]1COCCN1c1cc(C2(S(=O)(=O)c3ccccc3)CC2)nc(-c2ccc(NC(=O)NC3CC3)cc2)n1 [Example 74a, 1-[4-[4-[1-(benzenesulfonyl)cyclopropyl]-6-[(3S)-3-ethylmorpholin-4-yl]pyrimidin-2-yl]phenyl]-3-cyclopropylurea]
